For test [1], the target named is T1, Cop6 (Coprinopsis cinerea, UniProt A8NCK5, N224D). As to the kind of experiment: product analysis by chiral GC-MS. Particulars: purified mutant; turnover only. The format is biochemical.
Test [2] concerns the target T1, Cop6. Kind of test: product profile by GC-MS. The format is biochemical. The settings on record: turnover only.

T1 sequence (A8NCK5 whole entry N224D): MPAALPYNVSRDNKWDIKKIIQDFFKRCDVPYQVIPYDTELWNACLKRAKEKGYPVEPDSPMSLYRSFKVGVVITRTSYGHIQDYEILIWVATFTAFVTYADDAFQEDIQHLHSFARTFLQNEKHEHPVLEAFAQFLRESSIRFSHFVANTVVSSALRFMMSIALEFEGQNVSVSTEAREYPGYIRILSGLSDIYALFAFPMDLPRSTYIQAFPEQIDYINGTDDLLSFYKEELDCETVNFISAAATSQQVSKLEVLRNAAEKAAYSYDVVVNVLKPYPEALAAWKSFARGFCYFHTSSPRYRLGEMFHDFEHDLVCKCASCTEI

`CC(C)=CCC/C(C)=C/CC/C(C)=C\COP(=O)(O)OP(=O)(O)O` [(Z,E)-FPP]: the “product analysis by chiral GC-MS” value in test [1] is “Mutant Cop6N224D now makes a small amount of an additional compound”. For `CC(C)=CCC/C(C)=C/CC/C(C)=C/COP(=O)(O)OP(=O)(O)O` [(E,E)-FPP], the “product profile by GC-MS” value in test [2] is recorded as “N224D does not affect the product profile of Cop6 with its normal substrate (E,E)-FPP”.

Values taken from article PMC2873112 (Chembiochem : a European journal of chemical biology, 2010).
